Measurements as given in patent publication US8173693B2, “Benzenesulfonamide derivatives and pharmaceutical composition thereof” (Purzer Pharmaceutical Co., Ltd., priority 2010, dated 2012).

Columns and labels:
[1] = test system: Human Bladder Cancer TSGH cells; experiment: MTT assay; type: cell-based; details: 72 hr
Description: (§1) Human Bladder Cancer TSGH cells, Human hepatoblastoma HepG2 cells, Human colorectal adenocarcinoma HT-29 cells, human nasopharyngeal carcinoma KB cells, Human gastric adenocarcinoma AGS cells, Human breast carcinoma MCF-7 cells, lung carcinoma A549 cells, and Human prostate carcinoma PC-3 cells were used in the preliminary cytotoxicity assays of the benzenesulfonamide derivatives of the present invention, and the inhibition activity against the tumor cells was evaluated.
(§2) All cell lines were maintained in RPMI 1640 supplied with 10% fetal bovine serum and maintained in a humidified chamber at 37° C. containing 5% CO2. Then, all cell lines were treated with compounds for 72 hr and subsequently incubated with 0.4 mg/mL of MTT at 37° C. for 2 hr. The medium was removed, and DMSO was added to dissolve MTT precipitate. Cell proliferation was determined by measuring the optical density at 540 nm using a Thermomax microplate reader (Molecular Devices, Sunnyvale, Calif.), and the IC50 values of the benzenesulfonamide derivatives of the present invention were calculated.

[2] = test system: human nasopharyngeal carcinoma KB cells; experiment: MTT assay; type: cell-based; details: Homo sapiens, MTT assay; for IC50: KB, 72 hr; for inhibition at 20 µM: KB cells, read-out: Percentage of tumor cells inhibited by 20 μM
Description: as §1, §2

[3] = test system: Human colorectal adenocarcinoma HT-29 cells; experiment: MTT assay; type: cell-based; details: 72 hr
Description: as §1, §2

[4] = test system: Human hepatoblastoma HepG2 cells; experiment: MTT assay; type: cell-based; details: 72 hr, read-out: IC50 HepaG2
Description: as §1, §2

[5] = test system: lung carcinoma A549 cells; experiment: SRB assay; type: cell-based; details: Homo sapiens, 48 hr
[6] = test system: Human gastric adenocarcinoma AGS cells; experiment: SRB assay; type: cell-based; details: 48 hr
[7] = test system: Human hepatoblastoma HepG2 cells; experiment: SRB assay; type: cell-based; details: 48 hr
[8] = test system: Human colorectal adenocarcinoma HT-29 cells; experiment: SRB assay; type: cell-based; details: 48 hr
[9] = test system: Human breast carcinoma MCF-7 cells; experiment: SRB assay; type: cell-based; details: MCF7, 48 hr
[10] = test system: lung carcinoma A549 cells; experiment: SRB assay; type: cell-based; details: Homo sapiens, 48 hr; remark: listed apart in the source
Description: as §1
(§3) All cell lines were maintained in RPMI 1640 supplied with 10% fetal bovine serum into 96-well microtiter plates and maintained in a humidified chamber at 37° C. containing 5% CO2. After 24 hr, cell lines in partial wells were fixed in situ with 10% trichloroacetic acid (TCA) to represent a measurement at the time of drug addition (T0). Then, cell lines in other wells were incubated with the benzenesulfonamide derivatives of the present invention for an additional 48 hr, and fixed in situ with 10% TCA to represent a measurement at the time of stopping reaction (Tx). After rinsing the plates with PBS and air-drying, 0.4% sulforhodamine B solution (weight per volume in 1% acetic acid) was added to each well and the plates were incubated for 10 min at room temperature. Unbound sulforhodamine B was removed with 1% acetic acid and the plates were air-dried. Cells bound with sulforhodamine B was subsequently solubilized with 10 mM Tris base (Trizma; Sigma). Cell proliferation was determined by measuring the optical density at 515 nm using a Thermomax microplate reader (Molecular Devices, Sunnyvale, Calif.). The half-inhibition concention (GI50) of the benzenesulfonamide derivatives of the present invention was obtained from the detected optical density.

[11] = test system: Human gastric adenocarcinoma AGS cells; experiment: SRB assay; type: cell-based; details: 48 hr; remark: listed apart in the source
Description: as §1, §3

[12] = test system: Human breast carcinoma MCF-7 cells; experiment: SRB assay; type: cell-based; details: MCF7, 48 hr; remark: listed apart in the source
Description: as §1, §3

[13] = test system: Human prostate carcinoma PC-3 cells; experiment: SRB assay; type: cell-based; details: Homo sapiens; for GI50: PC-3, 48 h; for IC50: PC-3, 48 hr
Description: as §1, §3

[14] = test system: Human colorectal adenocarcinoma HT-29 cells; experiment: SRB assay; type: cell-based; details: 48 hr; remark: listed apart in the source
Description: as §1, §3

[15] = test system: Human hepatoblastoma HepG2 cells; experiment: SRB assay; type: cell-based; details: 48 hr; remark: listed apart in the source
Description: as §1, §3

Row | melting point [°C] | IC50 [1] [µM] | IC50 [2] [µM] | IC50 [3] [µM] | IC50 [4] [µM] | SMILES | inhibition at 20 µM [2] [%] | other results
1 | 178 to 179 | 7.5 | > 20 | 51.9 | 44.7 | O=S(=O)(Nc1cccc2cc[nH]c12)c1ccccc1 [Compound 5a, N-(1H-Indol-7-yl)benzenesulfonamide] | 30 | 
2 | 159 to 160 | 9.4 | > 20 | 7.9 | 7.9 | Cc1ccc(S(=O)(=O)Nc2cccc3cc[nH]c23)cc1 [Compound 5b, N-(1H-Indol-7-yl)-4-methylbenzenesulfonamide] | 39 | 
3 | 161 to 162 | 2.4 | 3.4 | 1.7 | 1.9 | COc1ccc(S(=O)(=O)Nc2cccc3cc[nH]c23)cc1 [Compound 5c, N-(1H-Indol-7-yl)-4-methoxybenzenesulfonamide] |  | 
4 | 163 to 164 | 35.6 | 20 | 19.8 | 14 | O=S(=O)(Nc1cccc2cc[nH]c12)c1ccc(Cl)cc1 [Compound 5d, 4-Chloro-N-(1H-indol-7-yl)benzenesulfonamide] |  | 
5 | 185 to 186 | 95.6 | > 20 | 113 | 46.9 | O=[N+]([O-])c1ccc(S(=O)(=O)Nc2cccc3cc[nH]c23)cc1 [Compound 5e, N-(1H-Indol-7-yl)-4-nitrobenzenesulfonamide] | 14 | 
6 | 215 to 216 | 37.5 | > 20 | 65.9 | 39.2 | NS(=O)(=O)c1ccc(S(=O)(=O)Nc2cccc3cc[nH]c23)cc1 [Compound 5g, N-(1H-Indol-7-yl)-4-sulfamoylbenzenesulfonamide] | 12 | 
7 | 187 to 188 | 125 | > 20 | 126 | 87.8 | O=[N+]([O-])c1ccccc1S(=O)(=O)Nc1cccc2cc[nH]c12 [Compound 5h, N-(1H-Indol-7-yl)-2-nitrobenzenesulfonamide] | 13 | 
8 | 237 to 238 | 160 | > 20 | 141 | 66.7 | Cc1ccc(C)c2c1[nH]c1c(NS(=O)(=O)c3ccccc3)cccc12 [Compound 6a, N-(5,8-Dimethyl-9H-carbazol-1-yl)benzenesulfonamide] | 32 | 
9 | 185 to 186 | 2.1 | 2.5 | 1.1 | 1.7 | Cc1ccc(S(=O)(=O)Nc2cccc3c2[nH]c2c(C)ccc(C)c23)cc1 [Compound 6b, N-(5,8-Dimethyl-9H-carbazol-1-yl)-4-methylbenzenesulfonamide] |  | 
10 | 217 to 218 | 90 | > 20 | 81.6 | 34.4 | Cc1ccc(C)c2c1[nH]c1c(NS(=O)(=O)c3ccc(Cl)cc3)cccc12 [Compound 6d, 4-Chloro-N-(5,8-dimethyl-9H-carbazol-1-yl)benzenesulfonamide] | 46 | 
11 | 202 to 203 | 40.6 | > 20 | 17.6 | 19.8 | Cc1ccc(C)c2c1[nH]c1c(NS(=O)(=O)c3ccc([N+](=O)[O-])cc3)cccc12 [Compound 6e, N-(5,8-Dimethyl-9H-carbazol-1-yl)-4-nitrobenzenesulfonamide] | 9 | 
12 | 254 to 255 | 39 | > 20 | 18.7 | 16.6 | Cc1ccc(C)c2c1[nH]c1c(NS(=O)(=O)c3ccc(N)cc3)cccc12 [Compound 6f, 4-Amino-N-(5,8-dimethyl-9H-carbazol-1-yl)benzenesulfonamide] | 34 | 
13 | 290 to 291 | 80.7 | 19.1 | 124 | 139 | Cc1ccc(C)c2c1[nH]c1c(NS(=O)(=O)c3ccc(S(N)(=O)=O)cc3)cccc12 [Compound 6g, N-(5,8-Dimethyl-9H-carbazol-1-yl)-4-sulfamoylbenzenesulfonamide] |  | 
14 | 202 to 203 | 37.2 | > 20 | 17 | 21 | Cc1ccc(C)c2c1[nH]c1c(NS(=O)(=O)c3ccccc3[N+](=O)[O-])cccc12 [Compound 6h, N-(5,8-Dimethyl-9H-carbazol-1-yl)-2-nitrobenzenesulfonamide] | 24 | 
15 | 205 to 207 |  |  |  |  | COc1cc(S(=O)(=O)Nc2cccc3c2[nH]c2c(C)ccc(C)c23)cc(OC)c1OC [Compound 6i, N-(5,8-Dimethyl-9H-carbazol-1-yl)-3,4,5-trimethoxybenzenesulfonamide] |  | 
16 | 217 to 218 |  |  |  |  | Cc1ccc(C)c2c1[nH]c1c(NS(=O)(=O)c3cccc(C(F)(F)F)c3)cccc12 [Compound 6j, N-(5,8-Dimethyl-9H-carbazol-1-yl)-3-trifluoromethylbenzenesulfonamide] |  | IC50 [5]: > 10 µM; IC50 [6]: > 10 µM; IC50 [7]: > 10 µM; IC50 [8]: > 10 µM; IC50 [9]: > 10 µM; GI50 [10]: > 10 µM; GI50 [11]: > 10 µM; GI50 [12]: > 10 µM; GI50 [13]: > 10 µM; IC50 [13]: > 10 µM; GI50 [14]: > 10 µM; GI50 [15]: > 10 µM
17 | 232 to 234 |  |  |  |  | Cc1ccc(C)c2c1[nH]c1c(NS(=O)(=O)c3ccc(Cl)s3)cccc12 [Compound 6k, 5-Chloro-thiophene-2-sulfonic acid (5,8-dimethyl-9H-carbazol-1-yl)amide] |  | IC50 [5]: 10 µM; IC50 [6]: > 10 µM; IC50 [7]: 2.7 µM; IC50 [8]: 5.6 µM; IC50 [9]: > 10 µM; GI50 [10]: 6.5 µM; GI50 [11]: 6.7 µM; GI50 [12]: > 10 µM; GI50 [13]: 4.6 µM; IC50 [13]: > 10 µM; GI50 [14]: 2.1 µM; GI50 [15]: 1.3 µM
18 | 300 to 301 |  |  |  |  | Cc1ccc(C)c2c1[nH]c1c(NC(=O)Nc3ccccc3)cccc12 [Compound 14a, 1-(5,8-Dimethyl-9H-carbazol-1-yl)-3-phenylurea] |  | 
19 | 262 to 263 |  |  |  |  | COc1ccc(NC(=O)Nc2cccc3c2[nH]c2c(C)ccc(C)c23)cc1 [Compound 14b, 1-(5,8-Dimethyl-9H-carbazol-1-yl)-3-(4-methoxyphenyl)urea] |  | 
20 | 88 to 89 |  |  |  |  | COc1ccc(S(=O)(=O)N(C)c2cccc3c2[nH]c2c(C)ccc(C)c23)cc1 [Compound 15c, N-(5,8-Dimethyl-9H-carbazol-1-yl)-N-methyl-4-methoxybenzenesulfonamide] |  | IC50 [5]: > 10 µM; IC50 [6]: > 10 µM; IC50 [7]: > 10 µM; IC50 [8]: > 10 µM; IC50 [9]: > 10 µM; GI50 [10]: > 10 µM; GI50 [11]: > 10 µM; GI50 [12]: > 10 µM; GI50 [13]: > 10 µM; IC50 [13]: > 10 µM; GI50 [14]: > 10 µM; GI50 [15]: > 10 µM
21 | 249 |  |  |  |  | Cc1ccc(C)c2c1[nH]c1c(NS(=O)(=O)c3cc(Cl)c(Oc4ccc([N+](=O)[O-])cc4Cl)c(Cl)c3)cccc12 [Compound 61, 3,5-Dichloro-4-(2-chloro-4-nitrophenoxy)-N-(5,8-dimethyl-9H-carbazol-1-yl)benzenesulfonamide] |  | 

Row | SMILES | melting point [°C] | IC50 [1] [µM] | IC50 [2] [µM] | IC50 [3] [µM] | IC50 [4] [µM] | inhibition at 20 µM [2] [%] | other results
22 | Cc1ccc(S(=O)(=O)Nc2cccc3c(/N=N/c4ccccc4)c[nH]c23)cc1 [Compound 7b, 4-Methyl-N-(3-phenylazo-1H-indol-7-yl)benzenesulfonamide] | 212 to 213 | 16 | > 20 | 17.9 | 30.8 | 35 | 
